# Test results: US20250270159A1, “1-(CYCLOBUTANEMETHYLIDENE)-2, 4, 5-TRIMETHOXYBENZENE COMPOUND AND PREPARATION METHOD AND USE THEREOF” (CHENGDU XINRUI TAIKANG TECHNOLOGY CO., LTD., priority 2023, published 2025)
# Marks after values point to notes of the source that are not given here.
# Legend:
# [1] = system: mouse model of pentylenetetrazole-induced epilepsy; test: Mouse model of pentylenetetrazole-induced epilepsy (Racine score, seizure rate, latency); type: in vivo, Kunming (KM) mice; conditions: for Incubation period (s), Clonic seizure / Incubation period (s), Tonic seizure: no seizure within 30 min recorded as 1800 s; for Seizure grade: pentylenetetrazole 75 mg/kg ip, Racine score within 30 min; for seizure rate, Clonic seizure / seizure rate, Tonic seizure: within 30 min
# Protocol: Validation of the protective effect of CTMB in a mouse model of pentylenetetrazole-induced epilepsy. • (1) Experimental animals: specific pathogen free (SPF) adult male Kunming (KM) mice with a weight of 30-35 g. • (2) Animal grouping: the test mice were randomly divided into […], namely, saline group, low-dose CTMB group (a dose of 50 mg/kg, CTMB-L), middle-dose CTMB group (a dose of 75 mg/kg, CTMB-M), high-dose CTMB group (a dose of 100 mg/kg, CTMB-H), 10 mice in each group, and each group was administered by intraperitoneal injection. • (3) Evaluation methods and results:
# After a period of drug administration, mice in each group were injected intraperitoneally with pentylenetetrazole of the epilepsy modeling drug with a dose of 75 mg/kg, and clonic seizures and tonic seizures were used as evaluation indexes. Racine scores as well as the seizure rate and latency period of clonic seizures (Racine scores of 1-3) and tonic seizures (Racine scores of 4-5) were observed and recorded for each group of mice within 30 min. Grading scale of Racine scores are as follows. Grade 0 represents normal nonepileptic activity; grade 1 represents wet-dog-like shaking or scratching; grade 2 represents head nodding or tail wagging; grade 3 represents stretching of one forelimb or clonus of one limb; grade 4 represents multiple limb clonus or tonicity; grade 5 represents falls and generalized tonic clonic seizures. If no seizure occurs in the mouse within 30 min, the latency period was recorded as 1800 s.
# [2] = system: rat model of lithium-pilocarpine-induced epilepsy; test: Rat model of lithium-pilocarpine-induced epilepsy (SE), highest seizure grade score; type: in vivo, Sprague Dawley (SD) rats; conditions: 50 mg/kg intraperitoneal, 1 h after SE onset; acute phase; Racine 0-6
# Protocol: (1) Experimental Animals: SPF Adult Male Sprague Dawley (SD) Rats, with a Weight of 200-250 g.
# Methylscopolamine bromide, lithium chloride, and pilocarpine were weighed, and experimental drugs were dissolved to working concentrations (100 mg/mL of lithium chloride solution, 1 mg/mLof methylscopolamine bromide solution, and 20 mg/mL of pilocarpine solution) with 0.9% saline. Rats were injected intraperitoneally with lithium chloride (a dose of 127 mg/kg), and 18-20 h later, scopolamine methylbromide (a dose of 1 mg/kg) was injected intraperitoneally. […] Thereafter, an additional dose of 10 mg/kg pilocarpine was injected intraperitoneally every 30 min until the onset of a grade IV or higher status epilepticus (SE)-like seizure without significant intermittent intervals, with a maximum dose of 60 mg/kg.
# Model inclusion criterion: experimental animals presenting continuous seizures of grade IV or higher for 1 h was judged as successful modeling.
# The rats with successful modeling were randomly divided into three groups, namely a model group, a CTMB group, and a sodium valproate (VPA) group. […]
# Referring to the grading scale of Racine scores, the seizure symptoms of each group of rats after the drug intervention were observed, and the seizure grades of each group of rats in the acute phase were recorded. […]
# [3] = system: blood-brain barrier permeability, traumatic brain injury (TBI) rats; test: Blood-brain barrier permeability test (Evans blue) in TBI rats; type: in vivo, SD rats; conditions: 30 mg/kg ip 2 h after TBI; 24 h after administration; FIG. 2
# Protocol: The experimental grouping and drug administration plan were as follows. • Sham operation group (Group P): saline was given with the same volume as in the CTMB group; • Model group (T group): a blank emulsion was given with the same volume as in the CTMB group; • Medium dose group (Group M): a dose of 30 mg/kg of CTMB emulsion injection was given.
# After 2 h of traumatic brain injury (TBI) modeling, the rats in each group were administered with intraperitoneal injection. After 24 h of the administration, 4% Evans blue solution (2.5 mL/kg) was injected into the right tail vein of the rats, and after 1 h, the rats were deeply anesthetized. The rats were perfused with 100 mL of saline through the heart, the brains were rapidly severed and removed and were immediately divided into the left hemisphere, the right hemisphere, the cerebellum, and the brain stem. The brain tissues were weighed to wet weight, soaked in 10 times volume of pure formamide, incubated at 60° C. for 48 h, and centrifuged at 25° C. and 10000 rpm/min for 30 min. The supernatant was aspirated to detect the Evans blue dye by UV spectrophotometry at 622 nm and a standard curve was plotted for quantification, and the final results were shown as Evans blue content per gram of brain tissue (μg/g).
# Malondialdehyde (MDA) = test: MDA content in striatum of PD mice; type: in vivo, C57 mice; conditions: Group D, CTMB 20 mg/kg ip, after 4 weeks, injured side
# Protocol: The mice were randomly divided into a sham operation group (group S, given a blank emulsion with a volume equal to that of the administered group), a model group (group M, given a blank emulsion with a volume equal to that of the administered group), a CTMB group (20 mg/kg, group D), and a levodopa group (levodopa: benserazide hydrochloride=4:1, 12 mg/kg, group L), each group included 10-12 mice, and all of them were administered intraperitoneally.
# Malondialdehyde (MDA) is a commonly used indicator of membrane lipid peroxidation, reduced glutathione (GSH) is one of the most commonly used non-enzymatic indicators of antioxidant substances, and superoxide dismutase (SOD) is a common indicator of antioxidant enzymes. After completing the evaluation of motor function after 4 weeks of drug administration, the mice were deeply anesthetized and perfused with 20 mL of saline via the heart. The brain was rapidly severed to isolate the striatal region on the injured side (right side), weighed, and placed into a 1.5 mL EP tube, and homogenized at low temperature by adding phosphate-buffered saline (PBS) at the ratio of a weight of animal tissues (g) to a volume of homogenization medium (mL) of 1:9. […]
smiles,measurement,setting,value
"COc1cc(OC)c(OC)cc1C=C1CCC1 [CTMB, 1-(cyclobutylidenemethyl)-2,4,5-trimethoxybenzene]","Incubation period (s), Clonic seizure",[1]; CTMB-H 100 mg/kg ip,1549.9 ± 537.1 s
same,"Incubation period (s), Tonic seizure",[1]; CTMB-H 100 mg/kg ip,1800.0 ± 0.0 s
same,Seizure grade,[1]; CTMB-H 100 mg/kg ip,0.2 ± 0.4
same,"seizure rate, Clonic seizure",[1]; CTMB-H 100 mg/kg ip,20%***
same,"seizure rate, Tonic seizure",[1]; CTMB-H 100 mg/kg ip,0%***
same,"Incubation period (s), Clonic seizure",[1]; CTMB-L 50 mg/kg ip,588.9 ± 657.6 s
same,"Incubation period (s), Tonic seizure",[1]; CTMB-L 50 mg/kg ip,1000.8 ± 700.7 s
same,Seizure grade,[1]; CTMB-L 50 mg/kg ip,4.1 ± 1.5
same,"seizure rate, Clonic seizure",[1]; CTMB-L 50 mg/kg ip,90%
same,"seizure rate, Tonic seizure",[1]; CTMB-L 50 mg/kg ip,70%
same,"Incubation period (s), Tonic seizure",[1]; CTMB-M 75 mg/kg ip,1553.5 ± 400.4 s
same,Seizure grade,[1]; CTMB-M 75 mg/kg ip,1.8 ± 1.3
same,"seizure rate, Clonic seizure",[1]; CTMB-M 75 mg/kg ip,50%*
same,"seizure rate, Tonic seizure",[1]; CTMB-M 75 mg/kg ip,30%**
same,"Seizure grade score (highest, SE model rats)",[2],4.38 ± 0.52
same,Evans blue exudation (content per gram of brain tissue),[3],significantly reduces Evans blue exudation
same,MDA,Malondialdehyde (MDA),2.04 ± 0.57 μmol/g protein
